Our source for the IC50 values is US20260184691A1, “INHIBITORS AND DEGRADERS OF PIP4K PROTEIN” (Larkspur Biosciences, Inc., priority 2022, published 2026).

The experiment has as its target T1, Human PIP4K2C (Homo sapiens, UniProt Q8TBX8).
T1 construct: purchased Eurofins DiscoverX 87-0007-1094
T1 sequence (Q8TBX8 1-421): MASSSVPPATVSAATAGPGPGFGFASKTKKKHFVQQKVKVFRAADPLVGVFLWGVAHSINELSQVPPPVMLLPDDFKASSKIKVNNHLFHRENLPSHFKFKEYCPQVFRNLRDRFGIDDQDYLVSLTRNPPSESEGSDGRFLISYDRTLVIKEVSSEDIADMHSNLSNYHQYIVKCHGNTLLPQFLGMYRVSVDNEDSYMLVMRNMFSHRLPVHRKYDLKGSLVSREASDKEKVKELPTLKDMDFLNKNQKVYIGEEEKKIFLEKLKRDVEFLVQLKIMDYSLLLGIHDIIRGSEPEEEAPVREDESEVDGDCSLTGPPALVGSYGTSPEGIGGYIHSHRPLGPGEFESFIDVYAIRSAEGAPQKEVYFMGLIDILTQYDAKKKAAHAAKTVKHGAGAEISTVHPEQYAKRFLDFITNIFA
As to the kind of experiment: Enzyme binding assay (KINOMEscan), active site-directed competition binding. As to conditions: 11-point dose response, duplicate, top concentration 5 micromolar; read-out: Pip4k2c Kd: IC50. Summed up: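 Active site-directed competition against immobilized ligand. 11-point dose response in duplicate, top concentration 5 micromolar; IC50 from Hill fit by Levenberg-Marquardt.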

For `O=C(C1CCCC1)N1CCC(c2nc(Nc3cncc(N4CCCC4=O)c3)ncc2Cl)CC1` [Compound 153, 1-(5-((5-chloro-4-(1-(cyclopentanecarbonyl)piperidin-4-yl)pyrimidin-2-yl)amino)pyridin-3-yl)pyrrolidin-2-one], the IC50 (commonly the midpoint of a concentration-inhibition curve) was less than 0.5 µM.
As for `O=C1CCCN1c1cncc(Nc2ncc(Cl)c(-c3ccn(C4CCCC4)n3)n2)c1` [Compound 144, 1-(5-((5-chloro-4-(1-cyclopentyl-1H-pyrazol-3-yl)pyrimidin-2-yl)amino)pyridin-3-yl)pyrrolidin-2-one], the IC50 is less than 0.5 µM.
The same measure for `CN1CC2(CC(=O)N(c3cncc(Nc4ncc(Cl)c(-c5cccc(-c6ccccc6)c5)n4)c3)C2)C1` [Compound 35, 6-(5-((4-([1,1′-biphenyl]-3-yl)-5-chloropyrimidin-2-yl)amino)pyridin-3-yl)-2-methyl-2,6-diazaspiro[3.4]octan-7-one]: less than 0.5 µM; for `O=C1CCCN1c1cncc(Nc2ncc(Cl)c(N3CCC(N4CCCCC4)C3)n2)c1` (centres unmarked) [Compound 121, 1-(5-((5-chloro-4-(3-(piperidin-1-yl)pyrrolidin-1-yl)pyrimidin-2-yl)amino)pyridin-3-yl)pyrrolidin-2-one]: less than 0.5 µM.
To `O=C1CCCN1c1cncc(Nc2ncc(Cl)c(-c3cc(Cl)cc(-c4ccccc4)c3)n2)c1` [Compound 22, 1-(5-((5-chloro-4-(5-chloro-[1,1′-biphenyl]-3-yl)pyrimidin-2-yl)amino)pyridin-3-yl)pyrrolidin-2-one] belongs less than 0.5 µM.
To `CC(=O)N1CCC2(CC1)CCN(c1cncc(Nc3ncc(Cl)c(-c4cccc(-c5ccccc5)c4)n3)c1)C2=O` [Compound 133, 8-acetyl-2-[5-[[5-chloro-4-(3-phenylphenyl)pyrimidin-2-yl]amino]-3-pyridyl]-2,8-diazaspiro[4.5]decan-1-one] belongs less than 0.5 µM.
Take `O=C1CCCN1c1cncc(Nc2ncc(Cl)c(N3CCCC(O)C3)n2)c1` (centres unmarked) [Compound 99]: the IC50 was less than 0.5 µM.
To `CC(=O)N1CCCC(c2cccc(-c3nc(Nc4cncc(N5CCCC5=O)c4)ncc3Cl)c2)C1` (centres unmarked) [Compound 34, 1-(5-((4-(3-(1-acetylpiperidin-3-yl)phenyl)-5-chloropyrimidin-2-yl)amino)pyridin-3-yl)pyrrolidin-2-one] belongs less than 0.5 µM; to `O=C1CCCN1c1cncc(Nc2ncc(Cl)c(-c3cccc(-c4ccc(Cl)cc4)c3)n2)c1` [Compound 4, 1-(5-((5-chloro-4-(4′-chloro-[1,1′-biphenyl]-3-yl)pyrimidin-2-yl)amino)pyridin-3-yl)pyrrolidin-2-one], less than 0.5 µM; to `O=C(c1ccc(F)cc1)N1CCC(c2nc(Nc3cncc(N4CCCC4=O)c3)ncc2Cl)C1` (centres unmarked) [Compound 159, 1-(5-((5-chloro-4-(1-(4-fluorobenzoyl)pyrrolidin-3-yl)pyrimidin-2-yl)amino)pyridin-3-yl)pyrrolidin-2-one], less than 0.5 µM.
The same measure for `O=C1CCCN1c1cncc(Nc2ncc(Cl)c(N3CCc4ccccc43)n2)c1` [Compound 129, 1-(5-((5-chloro-4-(indolin-1-yl)pyrimidin-2-yl)amino)pyridin-3-yl)pyrrolidin-2-one]: less than 0.5 µM; for `O=C1CCCN1c1cncc(Nc2ncc(Cl)c(-c3ccn(-c4ccccc4)n3)n2)c1` [Compound 143, 1-(5-((5-chloro-4-(1-phenyl-1H-pyrazol-3-yl)pyrimidin-2-yl)amino)pyridin-3-yl)pyrrolidine-2-one]: less than 0.5 µM.
The same measure for `O=C1CCCN1c1cncc(Nc2cc(-c3ccccc3)c(Cl)cn2)c1` [Compound 117, 1-(5-((5-chloro-4-phenylpyridin-2-yl)amino)pyridin-3-yl)pyrrolidin-2-one]: less than 0.5 µM.
In the case of `O=C1CCCN1c1cncc(Nc2ncc(Cl)c(-c3cccc(N4CCC4)c3)n2)c1` [Compound 122, 1-(5-((4-(3-(azetidin-1-yl)phenyl)-5-chloropyrimidin-2-yl)amino)pyridin-3-yl)pyrrolidin-2-one], the IC50 was less than 0.5 µM.
To `O=C1CCCN1c1cncc(Nc2ncc(Cl)c(N3CCCC(C4CC4)C3)n2)c1` (centres unmarked) [Compound 126, 1-(5-((5-chloro-4-(3-cyclopropylpiperidin-1-yl)pyrimidin-2-yl)amino)pyridin-3-yl)pyrrolidin-2-one] belongs less than 0.5 µM; to `O=C1CCCN1c1cncc(Nc2ncc(Cl)c(-c3cnn(-c4ccccc4)c3)n2)c1` [Compound 140, 1-(5-((5-chloro-4-(1-phenyl-1H-pyrazol-4-yl)pyrimidin-2-yl)amino)pyridin-3-yl)pyrrolidin-2-one], less than 0.5 µM.
The same measure for `O=C1CCCN1c1cncc(Nc2ncc(Cl)c(-c3ccc(F)cc3Cl)n2)c1` [Compound 112, 1-(5-((5-chloro-4-(2-chloro-4-fluorophenyl)pyrimidin-2-yl)amino)pyridin-3-yl)pyrrolidin-2-one]: less than 0.5 µM; for `O=C1CCCN1c1cncc(Nc2ncc(Cl)c(-c3cccc(-c4ccc(Cl)c(Cl)c4)c3)n2)c1` [Compound 2, 1-(5-((5-chloro-4-(3′,4′-dichloro-[1,1′-biphenyl]-3-yl)pyrimidin-2-yl)amino)pyridin-3-yl)pyrrolidin-2-one]: less than 0.5 µM.
The same measure for `O=C1CCCN1c1cncc(Nc2ncc(Cl)c(N3CCC(c4ccccc4)C3)n2)c1` (centres unmarked) [Compound 42, 1-(5-((5-chloro-4-(3-phenylpyrrolidin-1-yl)pyrimidin-2-yl)amino)pyridin-3-yl)pyrrolidin-2-one]: less than 0.5 µM; for `O=C1CCCN1c1cncc(Nc2ncc(Cl)c(-c3cnn(C4CCCCC4)c3)n2)c1` [Compound 139, 1-[5-[[5-chloro-4-(1-cyclohexylpyrazol-4-yl)pyrimidin-2-yl]amino]-3-pyridyl]pyrrolidin-2-one]: less than 0.5 µM.
On to `Cc1cc(-c2nc(Nc3cncc(N4CCCC4=O)c3)ncc2Cl)ccn1` [Compound 105, 1-(5-((5-chloro-4-(2-methylpyridin-4-yl)pyrimidin-2-yl)amino)pyridin-3-yl)pyrrolidin-2-one], for which the IC50 lay within 0.5 to 1 µM.
To `O=C1CCCN1c1cncc(Nc2ncc(Cl)c(C3CCCN(C4CCCC4)C3)n2)c1` (centres unmarked) [Compound 135, 1-(5-((5-chloro-4-(1-cyclopentylpiperidin-3-yl)pyrimidin-2-yl)amino)pyridin-3-yl)pyrrolidin-2-one] belongs less than 0.5 µM; to `O=C1CCCN1c1cncc(Nc2ncc(Cl)c(N3CCC(N4CCCC4)C3)n2)c1` (centres unmarked) [Compound 37, 1-(5-((4-([1,3′-bipyrrolidin]-1′-yl)-5-chloropyrimidin-2-yl)amino)pyridin-3-yl)pyrrolidin-2-one], less than 0.5 µM.
With `O=C1CCCN1c1cncc(Nc2ncc(Cl)c(C3CCCN(c4ccccc4)C3)n2)c1` (centres unmarked) [Compound 141, 1-(5-((5-chloro-4-(1-phenylpiperidin-3-yl)pyrimidin-2-yl)amino)pyridin-3-yl)pyrrolidin-2-one], the IC50 was less than 0.5 µM.
To `COc1cc(-c2ccccc2)cc(-c2nc(Nc3cncc(N4CCCC4=O)c3)ncc2Cl)c1` [Compound 18, 1-(5-((5-chloro-4-(5-methoxy-[1,1′-biphenyl]-3-yl)pyrimidin-2-yl)amino)pyridin-3-yl)pyrrolidin-2-one] belongs less than 0.5 µM; to `O=C1CCCN1c1cncc(Nc2ncc(Cl)c(-c3cnn(C4CCC4)c3)n2)c1` [Compound 137, 1-(5-((5-chloro-4-(1-cyclobutyl-1H-pyrazol-4-yl)pyrimidin-2-yl)amino)pyridin-3-yl)pyrrolidin-2-one], less than 0.5 µM.
